Experimental data taken from patent US12037344B2, “NLRP3 modulators” (INNATE TUMOR IMMUNITY, INC., priority 2018, dated 2024).
pEC50: −log10 of the molar value. Where a name gives a salt, the structure may show the parent alone. Read-outs that look alike come from different tables or passages of the source.

Key:
THP-1 cells = assay: Measurement of IL-1β production, hTRF protocol (second alternative procedure), THP-1 cells; assay type: cell-based, human; conditions: read-out: NLRP3 hILIB EC50
Procedure, shortened: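 THP-1 cells differentiated overnight with 50 ng/ml PMA, then plated at 50,000 cells/well in RPMI with 2% FBS onto serial compound dilutions (top final concentration 10 μM) for 2 hours at 37° C. Supernatant IL-1β measured by hTRF (antibodies at 1:40, overnight at 4° C), read at 665/615 nm against a standard curve.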

TLR8 = target: T1, TLR8 (Homo sapiens, UniProt Q9NR97); assay: In vitro human TLR8 binding reporter assay (HEK-Blue, NF-kB/AP1-inducible SEAP); assay type: cell-based; conditions: read-out: TLR8 Agonist EC50
T1 construct: human HEK-Blue cells co-expressing a TLR7 or TLR8 gene
T1 sequence (Q9NR97 27-1041): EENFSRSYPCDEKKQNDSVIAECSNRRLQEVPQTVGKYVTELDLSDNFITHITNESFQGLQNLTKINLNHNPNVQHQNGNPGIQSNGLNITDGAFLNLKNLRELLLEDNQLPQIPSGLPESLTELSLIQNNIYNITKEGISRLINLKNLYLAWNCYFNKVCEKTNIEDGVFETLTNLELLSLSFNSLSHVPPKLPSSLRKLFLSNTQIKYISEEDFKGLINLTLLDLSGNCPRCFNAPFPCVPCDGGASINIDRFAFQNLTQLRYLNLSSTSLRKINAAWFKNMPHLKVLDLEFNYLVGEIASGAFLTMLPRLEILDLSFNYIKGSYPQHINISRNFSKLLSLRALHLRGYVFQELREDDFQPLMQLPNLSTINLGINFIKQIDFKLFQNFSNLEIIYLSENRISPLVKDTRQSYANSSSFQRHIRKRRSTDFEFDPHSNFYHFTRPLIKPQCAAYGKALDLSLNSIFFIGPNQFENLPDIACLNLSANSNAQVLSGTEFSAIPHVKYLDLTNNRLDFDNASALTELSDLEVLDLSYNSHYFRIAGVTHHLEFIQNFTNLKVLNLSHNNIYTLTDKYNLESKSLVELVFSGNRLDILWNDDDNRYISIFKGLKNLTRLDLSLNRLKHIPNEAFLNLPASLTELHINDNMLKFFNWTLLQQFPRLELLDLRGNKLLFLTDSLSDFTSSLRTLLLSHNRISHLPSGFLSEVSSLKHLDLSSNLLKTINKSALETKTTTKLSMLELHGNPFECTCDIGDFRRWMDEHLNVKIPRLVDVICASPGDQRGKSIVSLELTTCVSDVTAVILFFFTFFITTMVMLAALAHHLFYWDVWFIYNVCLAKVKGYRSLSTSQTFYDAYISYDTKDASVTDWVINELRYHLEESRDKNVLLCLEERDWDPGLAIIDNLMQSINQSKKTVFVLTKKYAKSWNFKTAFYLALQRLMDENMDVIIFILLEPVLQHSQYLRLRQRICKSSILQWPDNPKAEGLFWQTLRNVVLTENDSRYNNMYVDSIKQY
Procedure, shortened: (§1)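 Cells are seeded and grown for 24 h. Compounds or DMSO are then added and incubated 18 h at 37 °C. Quanti-Blue is added, and SEAP is read after thirty minutes. EC50 values are normalized, with RLU from 50 μM reference standard setting 100% Ymax.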

TLR7 = target: T2, TLR7 (Homo sapiens, UniProt Q9NYK1); assay: In vitro human TLR7 binding reporter assay (HEK-Blue, NF-kB/AP1-inducible SEAP); assay type: cell-based; conditions: read-out: TLR7 Agonist EC50
T2 construct: human HEK-Blue cells co-expressing a TLR7 or TLR8 gene
T2 sequence (Q9NYK1 27-1049): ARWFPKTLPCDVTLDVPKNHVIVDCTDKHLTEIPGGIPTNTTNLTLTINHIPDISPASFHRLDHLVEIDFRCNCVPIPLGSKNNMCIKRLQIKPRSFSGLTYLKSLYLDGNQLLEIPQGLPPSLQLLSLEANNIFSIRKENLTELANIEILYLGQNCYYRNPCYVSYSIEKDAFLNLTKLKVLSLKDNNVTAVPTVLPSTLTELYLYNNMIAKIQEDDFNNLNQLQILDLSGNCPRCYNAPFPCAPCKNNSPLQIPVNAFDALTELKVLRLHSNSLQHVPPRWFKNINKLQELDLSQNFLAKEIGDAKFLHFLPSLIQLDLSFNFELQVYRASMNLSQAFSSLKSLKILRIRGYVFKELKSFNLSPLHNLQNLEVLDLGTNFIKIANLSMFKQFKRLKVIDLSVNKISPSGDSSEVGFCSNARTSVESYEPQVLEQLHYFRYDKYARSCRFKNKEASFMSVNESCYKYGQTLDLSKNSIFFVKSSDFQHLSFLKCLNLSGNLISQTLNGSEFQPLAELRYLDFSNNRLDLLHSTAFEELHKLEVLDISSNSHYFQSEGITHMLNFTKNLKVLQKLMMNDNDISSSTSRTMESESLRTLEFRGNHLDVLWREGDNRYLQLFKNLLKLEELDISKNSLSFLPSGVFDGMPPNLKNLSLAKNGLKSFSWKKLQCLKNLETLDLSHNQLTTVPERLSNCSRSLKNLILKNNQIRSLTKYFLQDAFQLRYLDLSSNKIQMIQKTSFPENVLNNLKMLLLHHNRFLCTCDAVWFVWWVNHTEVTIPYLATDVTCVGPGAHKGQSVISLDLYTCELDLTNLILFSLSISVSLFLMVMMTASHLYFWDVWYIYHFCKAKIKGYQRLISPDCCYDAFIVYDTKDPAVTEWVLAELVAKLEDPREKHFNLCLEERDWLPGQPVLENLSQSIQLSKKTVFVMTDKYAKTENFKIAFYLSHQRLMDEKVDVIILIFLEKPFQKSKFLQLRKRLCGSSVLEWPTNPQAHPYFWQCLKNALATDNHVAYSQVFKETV
Procedure, shortened: as §1

[1] = Homo sapiens, THP-1, IL-1β production, human
[2] = Homo sapiens, THP-1, IL-1β production, human cells

Compound | pEC50 (THP-1 cells; [1]) | pEC50 (TLR8; activity range class) | pEC50 (TLR7; activity range class) | pEC50 (THP-1 cells; [2]) | pEC50 (TLR8; activity range) | pEC50 (TLR7; activity range) | pEC50 (THP-1 cells; IL-1β production, human cells)
Nc1nc2cc(-c3cc[nH]n3)ccc2c2nn(CC3CC3(F)F)cc12 (stereo not drawn) [Example 386] | 6.68 | < 4.00 | < 4.00 |  |  |  | 
CS(=O)(=O)CCCn1cc2c(N)nc3cc(-n4cccn4)ccc3c2n1 [Example 387] | 5.64 | < 4.00 | < 4.00 |  |  |  | 
CO[C@@H](CO)Cn1cc2c(N)nc3cc(-n4cccn4)ccc3c2n1 [Example 388] | 6.51 | < 4.00 | < 4.00 |  |  |  | 
Nc1nc2cc(-n3cccn3)ccc2c2nn(C[C@@H](O)CO)cc12 [Example 389] | 6.04 | < 4.00 | < 4.00 |  |  |  | 
Nc1nc2cc(-n3cccn3)ccc2c2nn(CC(F)F)cc12 [Example 390] | 6.46 | < 4.00 | < 4.00 |  |  |  | 
Nc1nc2cc(-n3cccn3)ccc2c2nn(CCc3c[nH]cn3)cc12 [Example 391] | 6.70 | < 4.00 | < 4.00 |  |  |  | 
N#CCCCn1cc2c(N)nc3cc(-c4cc[nH]n4)ccc3c2n1 [Example 392] | 7.10 | < 4.00 | < 4.00 |  |  |  | 
Nc1nc2cc(-c3cc[nH]n3)ccc2c2nn([C@H]3CC[C@H](O)CC3)cc12 [Example 393] | 5.76 | < 4.00 | < 4.00 |  |  |  | 
Nc1nc2cc(-c3cc[nH]n3)ccc2c2nn([C@H]3CC[C@@H](O)CC3)cc12 [Example 394] | 6.34 | < 4.00 | < 4.00 |  |  |  | 
N#CCCn1cc2c(N)nc3cc(-c4cc[nH]n4)ccc3c2n1 [Example 395] |  |  |  | 7.15 | < 4.00 | < 4.00 | 
Nc1nc2cc(-c3cc[nH]n3)ccc2c2nn(CCO)cc12 [Example 396] |  |  |  | 6.19 | < 4.00 | < 4.00 | 
Nc1nc2cc(-c3cc[nH]n3)ccc2c2cn(CCOC(F)F)nc12 [Example 397] |  |  |  | 6.47 | < 4.00 | 4.70 to 6.00 | 
Nc1nc2cc(-c3cc[nH]n3)ccc2c2cn(C[C@@H](O)CO)nc12 [Example 398] |  |  |  | 5.81 | < 4.00 | < 4.00 | 
C[C@H](CO)Cn1cc2c(n1)c(N)nc1cc(-c3cc[nH]n3)ccc12 [Example 399] |  |  |  | 6.64 | < 4.00 | < 4.00 | 
CC[C@@H](O)Cn1ncc2c(N)nc3cc(-c4cc[nH]n4)ccc3c21 [Example 400] |  |  |  | 5.91 | < 4.00 | < 4.00 | 
C[C@H](O)Cn1ncc2c(N)nc3cc(-c4cc[nH]n4)ccc3c21 [Example 401] |  |  |  | 5.58 | < 4.00 | < 4.00 | 
Nc1nc2cc(-c3cc[nH]n3)c(F)cc2c2c1cnn2CCO [Example 403] |  |  |  | 5.42 | < 4.00 | < 4.00 | 
Nc1nc2cc(-c3cc[nH]n3)c(F)cc2c2nn(CCO)cc12 [Example 404] |  |  |  | 6.13 | < 4.00 | < 4.00 | 
C[C@H](O)Cn1cc2c(N)nc3cc(-c4cc[nH]n4)c(F)cc3c2n1 [Example 405] |  |  |  | 6.16 | < 4.00 | < 4.00 | 
COCCn1cc2c(N)nc3cc(-c4cc[nH]n4)c(F)cc3c2n1 [Example 406] |  |  |  | 6.35 | < 4.00 | < 4.00 | 
CC(C)(CO)n1cc2c(N)nc3cc(-c4cc[nH]n4)ccc3c2n1 [Example 407, 2-(4-amino-7-(1H-pyrazol-3-yl)-2H-pyrazolo[4,3-c]quinolin-2-yl)-2-methylpropan-1-ol, TFA] |  |  |  |  | < 4.00 | < 4.00 | 6.30
Nc1nc2cc(-c3cc[nH]n3)ccc2c2nn(Cc3cc(CO)no3)cc12 [Example 408] |  |  |  | 5.71 | < 4.00 | < 4.00 | 
Nc1nc2cc(-c3cc[nH]n3)ccc2c2nn(Cc3ccnc(CO)c3)cc12 [Example 409] |  |  |  | 5.83 | < 4.00 | < 4.00 | 
CC(C)(CCO)n1cc2c(N)nc3cc(-c4cc[nH]n4)ccc3c2n1 [Example 410, 3-(4-amino-7-(1H-pyrazol-3-yl)-2H-pyrazolo[4,3-c]quinolin-2-yl)-3-methylbutan-1-ol, TFA] |  |  |  | 6.48 | < 4.00 | < 4.00 | 
Nc1nc2cc(-c3ccn[nH]3)ccc2c2[nH]c(CN3CCOCC3)cc12 [Example 411, 2-[(morpholin-4-yl)methyl]-7-(1H-pyrazol-5-yl)-1H-pyrrolo[3,2-c]quinolin-4-amine] |  |  |  | 6.19 | < 4.00 | < 4.00 | 
Nc1nc2cc(-c3cc[nH]n3)ccc2c2[nH]c(CNC(=O)C3CCCO3)cc12 (stereo not drawn) [Example 412] |  |  |  | 5.73 | < 4.00 | < 4.00 | 
Nc1nc2cc(-c3cc[nH]n3)ccc2c2[nH]c(CNC(=O)C3CCCCO3)cc12 (stereo not drawn) [Example 413] |  |  |  | 5.72 | < 4.00 | < 4.00 | 
Nc1nc2cc(-c3cc[nH]n3)ccc2c2[nH]c(CCNC(=O)C3CCCO3)cc12 (stereo not drawn) [Example 414] |  |  |  | 5.55 | < 4.00 | < 4.00 | 
